In patent US9936701B2, “Herbicidal compounds” (Syngenta Participations AG, priority 2013, dated 2018):

Legend:
[1] = system: a variety of test species; test: Post-emergence herbicidal activity (glasshouse, sprayed after 8 days cultivation, evaluated after 13 days); type: in vivo; design: key: 5=total damage to plant; 0=no damage to plant; conditions: rate 1000 g/Ha, scale 0-5
How it was run: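 Damage was rated 0-5 (5 = total) 13 days after a post-emergence spray of acetone/water (50:50) plus 0.5% Tween 20 formulation. Plants were sprayed at 8 days' growth and kept at 24/16° C, 14 h light, 65% humidity, watered twice daily.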

[2] = system: a variety of test species; test: Pre-emergence herbicidal activity (glasshouse, sprayed one day after sowing, evaluated after 13 days); type: in vivo; design: key: 5=total damage to plant; 0=no damage to plant; conditions: application pre-emergence, rate 1000 g/Ha, scale 0-5
How it was run: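 Visual 0–5 injury score (5 = total damage) taken 13 days after spraying. Treatment applied one day after sowing, before emergence; glasshouse at 24/16 °C day/night, 14 h photoperiod, 65% humidity.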

For `COC1=C(Br)C(=O)N(c2cc(C(C)(C)C)on2)C1O` (centres unmarked) [B2], the “ABUTH (Abutilon theophrasti) damage score, application post-emergence” value (from here on “ABUTH … application post-emergence”) [1] was 5, the “ALOMY (Alopecurus myosuroides) damage score, application post-emergence” value (“ALOMY … application post-emergence” for short) [1] was 4 and the “AMARE (Amaranthus retroflexus) damage score, application post-emergence” value (shortened to “AMARE … application post-emergence”) [1] was 5. The “ECHCG (Echinochloa crus-galli) damage score, application post-emergence” value (“ECHCG … application post-emergence” below) [1] was 5, the “SETFA (Setaria faberi) damage score, application post-emergence” value (from here on “SETFA (Setaria faberi) damage score”) [1] was 4 and the “ZEAMX (Zea mays) damage score, application post-emergence” value (shortened to “ZEAMX (Zea mays) damage score”) [1] was 5. The melting point was 140 to 160 °C, the “Pre-emergence herbicidal damage score, ABUTH” value [2] was 5 and the “Pre-emergence herbicidal damage score, ALOMY” value [2] was 4. The “Pre-emergence herbicidal damage score, AMARE” value [2] was 5, the “Pre-emergence herbicidal damage score, ECHCG” value [2] was 5 and the “Pre-emergence herbicidal damage score, SETFA” value [2] was 4. The “Pre-emergence herbicidal damage score, ZEAMX” value [2] was 1.
In the case of `C=CCNC1=C(Cl)C(=O)N(c2cc(C(C)(C)C)on2)C1O` (centres unmarked) [C7], the “ABUTH … application post-emergence” value [1] is reported as 5, the “ALOMY … application post-emergence” value [1] is reported as 4 and the “AMARE … application post-emergence” value [1] is reported as 5. For the same compound, the “ECHCG … application post-emergence” value [1] was 5, the “SETFA (Setaria faberi) damage score” value [1] was 5 and the “ZEAMX (Zea mays) damage score” value [1] was 3. For the same compound, the melting point was 163 to 164 °C, the “Pre-emergence herbicidal damage score, ABUTH” value [2] was 5 and the “Pre-emergence herbicidal damage score, ALOMY” value [2] was 3. The “Pre-emergence herbicidal damage score, AMARE” value [2] was 5, the “Pre-emergence herbicidal damage score, ECHCG” value [2] was 5 and the “Pre-emergence herbicidal damage score, SETFA” value [2] was 3. For the same compound, the “Pre-emergence herbicidal damage score, ZEAMX” value [2] was 2.
With `CC(C)(C)c1cc(N2C(=O)C(Cl)=C(NC3CC3)C2O)no1` (centres unmarked) [C8] the “ABUTH … application post-emergence” value [1] was 5, the “ALOMY … application post-emergence” value [1] was 4 and the “AMARE … application post-emergence” value [1] was 5. The “ECHCG … application post-emergence” value [1] was 5, the “SETFA (Setaria faberi) damage score” value [1] was 5 and the “ZEAMX (Zea mays) damage score” value [1] was 4. For the same compound, the melting point was 179 to 180 °C, the “Pre-emergence herbicidal damage score, ABUTH” value [2] was 5 and the “Pre-emergence herbicidal damage score, ALOMY” value [2] was 3. The “Pre-emergence herbicidal damage score, AMARE” value [2] was 5, the “Pre-emergence herbicidal damage score, ECHCG” value [2] was 5 and the “Pre-emergence herbicidal damage score, SETFA” value [2] was 3. The “Pre-emergence herbicidal damage score, ZEAMX” value [2] was 2.
In the case of `COC1=C(C)C(O)N(c2cc(C(C)(C)C)on2)C1=O` (centres unmarked) [D1, 1-(5-tert-butylisoxazol-3-yl)-2-hydroxy-4-methoxy-3-methyl-2H-pyrrol-5-one], the “ABUTH … application post-emergence” value [1] is reported as 5, the “ALOMY … application post-emergence” value [1] is reported as 4 and the “AMARE … application post-emergence” value [1] is reported as 5. The “ECHCG … application post-emergence” value [1] was 5, the “SETFA (Setaria faberi) damage score” value [1] was 5 and the “ZEAMX (Zea mays) damage score” value [1] was 4. For the same compound, the melting point was 82 to 95 °C, the “Pre-emergence herbicidal damage score, ABUTH” value [2] was 5 and the “Pre-emergence herbicidal damage score, ALOMY” value [2] was 4. The “Pre-emergence herbicidal damage score, AMARE” value [2] was 5, the “Pre-emergence herbicidal damage score, ECHCG” value [2] was 4 and the “Pre-emergence herbicidal damage score, SETFA” value [2] was 5. For the same compound, the “Pre-emergence herbicidal damage score, ZEAMX” value [2] was 2.
For `COC1=C(C)C(O)N(c2noc(C(C)(C)C)c2C#N)C1=O` (centres unmarked) [D2, 5-tert-butyl-3-(2-hydroxy-4-methoxy-3-methyl-5-oxo-2H-pyrrol-1-yl)isoxazole-4-carbonitrile], the “ABUTH … application post-emergence” value [1] was 5, the “ALOMY … application post-emergence” value [1] was 5 and the “AMARE … application post-emergence” value [1] was 5. The “ECHCG … application post-emergence” value [1] was 5, the “SETFA (Setaria faberi) damage score” value [1] was 5 and the “ZEAMX (Zea mays) damage score” value [1] was 4. The melting point was 98 to 100 °C, the “Pre-emergence herbicidal damage score, ABUTH” value [2] was 5 and the “Pre-emergence herbicidal damage score, ALOMY” value [2] was 3. The “Pre-emergence herbicidal damage score, AMARE” value [2] was 5, the “Pre-emergence herbicidal damage score, ECHCG” value [2] was 4 and the “Pre-emergence herbicidal damage score, SETFA” value [2] was 5. The “Pre-emergence herbicidal damage score, ZEAMX” value [2] was 3.
In the case of `COC1=C(C)C(O)N(c2noc(C(C)C)c2C#N)C1=O` (centres unmarked) [D3], the “ABUTH … application post-emergence” value [1] is reported as 5, the “ALOMY … application post-emergence” value [1] is reported as 5 and the “AMARE … application post-emergence” value [1] is reported as 5. For the same compound, the “ECHCG … application post-emergence” value [1] was 5, the “SETFA (Setaria faberi) damage score” value [1] was 5 and the “ZEAMX (Zea mays) damage score” value [1] was 4. For the same compound, the melting point was 99 to 101 °C, the “Pre-emergence herbicidal damage score, ABUTH” value [2] was 4 and the “Pre-emergence herbicidal damage score, ALOMY” value [2] was 3. The “Pre-emergence herbicidal damage score, AMARE” value [2] was 5, the “Pre-emergence herbicidal damage score, ECHCG” value [2] was 5 and the “Pre-emergence herbicidal damage score, SETFA” value [2] was 5. For the same compound, the “Pre-emergence herbicidal damage score, ZEAMX” value [2] was 2.
For `COC1=C(C)C(O)N(c2cc(C(C)(C)C#N)on2)C1=O` (centres unmarked) [D4], the “ABUTH … application post-emergence” value [1] was 5, the “ALOMY … application post-emergence” value [1] was 5 and the “AMARE … application post-emergence” value [1] was 5. The “ECHCG … application post-emergence” value [1] was 5, the “SETFA (Setaria faberi) damage score” value [1] was 5 and the “ZEAMX (Zea mays) damage score” value [1] was 5. The melting point was 123 to 125 °C, the “Pre-emergence herbicidal damage score, ABUTH” value [2] was 5 and the “Pre-emergence herbicidal damage score, ALOMY” value [2] was 4. The “Pre-emergence herbicidal damage score, AMARE” value [2] was 5, the “Pre-emergence herbicidal damage score, ECHCG” value [2] was 5 and the “Pre-emergence herbicidal damage score, SETFA” value [2] was 5. For the same compound, the “Pre-emergence herbicidal damage score, ZEAMX” value [2] was 3.
With `CCC(C)(C)c1onc(N2C(=O)C(OC)=C(C)C2O)c1C#N` (centres unmarked) [D5] the “ABUTH … application post-emergence” value [1] was 5, the “ALOMY … application post-emergence” value [1] was 5 and the “AMARE … application post-emergence” value [1] was 5. The “ECHCG … application post-emergence” value [1] was 5, the “SETFA (Setaria faberi) damage score” value [1] was 5 and the “ZEAMX (Zea mays) damage score” value [1] was 5. For the same compound, the melting point was 79 to 81 °C, the “Pre-emergence herbicidal damage score, ABUTH” value [2] was 5 and the “Pre-emergence herbicidal damage score, ALOMY” value [2] was 4. For the same compound, the “Pre-emergence herbicidal damage score, AMARE” value [2] was 5, the “Pre-emergence herbicidal damage score, ECHCG” value [2] was 5 and the “Pre-emergence herbicidal damage score, SETFA” value [2] was 5. The “Pre-emergence herbicidal damage score, ZEAMX” value [2] was 2.
